Assay: plasma trough level of itraconazole required for clinical benefit, and side effects of high doses, in humans with cancer
Format: in vivo
Description: In particular, the minimum plasma trough level after 4 weeks of therapy required to have a clinically significant effect was at least 1000 ng/ml. […] These side effects associated with these high doses of itraconazole can be effectively managed by giving a selective mineralocorticoid antagonist, such as eplerenone. Accordingly, in some embodiments, the method further comprises administering eplerenone or other mineralocorticoid inhibitor.

With `CCC(C)n1ncn(-c2ccc(N3CCN(c4ccc(OCC5COC(Cn6cncn6)(c6ccc(Cl)cc6Cl)O5)cc4)CC3)cc2)c1=O` (centres unmarked) [itraconazole] the “side-effects peculiar to high doses” value (high doses giving plasma trough of at least 1000 ng/ml) was “hypertension, peripheral edema, and hypokalemia” and the concentration at 4 weeks (human, plasma, after 4 weeks of therapy, humans with cancer, read-out: minimum plasma trough level required to have a clinically significant effect) was ≥ 1000 ng/mL.
